Measurements taken from patent US7595337B2, “Mitotic kinesin inhibitors” (Merck & Co. Inc., priority 2005, dated 2009).
pIC50: −log10 of the molar value.

Biological target: T1, human poly-histidine tagged KSP motor domain (KSP(367H)) (Homo sapiens, UniProt P52732)
T1 construct: were used to amplify the motor domain and the neck linker region; made in house; host or cells: E. coli BL21 (DE3), pRSETa
T1 sequence (P52732 18-359 limits assumed): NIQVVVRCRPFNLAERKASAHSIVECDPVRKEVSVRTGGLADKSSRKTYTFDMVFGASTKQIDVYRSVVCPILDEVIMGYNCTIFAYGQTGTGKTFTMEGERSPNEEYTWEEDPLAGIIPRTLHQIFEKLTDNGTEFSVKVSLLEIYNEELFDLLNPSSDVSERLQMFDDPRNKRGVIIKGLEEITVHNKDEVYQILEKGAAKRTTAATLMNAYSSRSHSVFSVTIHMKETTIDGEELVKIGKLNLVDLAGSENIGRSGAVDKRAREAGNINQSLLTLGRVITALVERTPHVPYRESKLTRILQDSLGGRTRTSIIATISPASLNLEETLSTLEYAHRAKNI
Test: Kinesin ATPase In Vitro Assay
Format: biochemical
Conditions: for pIC50: microtubules, 1 mM ATP, 23° C., quinaldine red/ammonium molybdate phosphate readout
From the text: I. Kinesin ATPase In Vitro Assay
Cloning and expression of human poly-histidine tagged KSP motor domain (KSP(367H)): Plasmids for the expression of the human KSP motor domain construct were cloned by PCR using a pBluescript full length human KSP construct (Blangy et al., Cell, vol. 83, pp 1159-1169, 1995) as a template. The N-terminal primer 5′-[…] (SEQ. ID. NO.: 1) and the C-terminal primer 5′-[…] […] (SEQ. ID. NO.: 2)
were used to amplify the motor domain and the neck linker region. The PCR products were digested with AseI and XhoI, ligated into the NdeI/XhoI digestion product of pRSETa (Invitrogen) and transformed into E. coli BL21 (DE3).
Cells were grown at 37° C. to an OD600 of 0.5. After cooling the culture to room temperature expression of KSP was induced with 100 μM IPTG and incubation was continued overnight. Cells were pelleted by centrifugation and washed once with ice-cold PBS. Pellets were flash-frozen and stored −80° C.
Protein Purification: Cell pellets were thawed on ice and resuspended in lysis buffer (50 mM K-HEPES, pH 8.0, 250 mM KCl, 0.1% Tween, 10 mM imidazole, 0.5 mM Mg-ATP, 1 mM PMSF, 2 mM benzimidine, 1× complete protease inhibitor cocktail (Roche)). Cell suspensions were incubated with 1 mg/ml lysozyme and 5 mM β-mercaptoethanol on ice for 10 minutes, followed by sonication (3×30 sec). All subsequent procedures were performed at 4° C. Lysates were centrifuged at 40,000×g for 40 minutes. Supernatants were diluted and loaded onto an SP Sepharose column (Pharmacia, 5 ml cartridge) in buffer A (50 mM K-HEPES, pH 6.8, 1 mM MgCl2, 1 mM EGTA, 10 μM Mg-ATP, 1 mM DTT) and eluted with a 0 to 750 mM KCl gradient in buffer A. Fractions containing KSP were pooled and incubated with Ni-NTA resin (Qiagen) for one hour. The resin was washed three times with buffer B (Lysis buffer minus PMSF and protease inhibitor cocktail), followed by three 15-minute incubations and washes with buffer B. Finally, the resin was incubated and washed for 15 minutes three times with buffer C (same as buffer B except for pH 6.0) and poured into a column. KSP was eluted with elution buffer (identical to buffer B except for 150 mM KCl and 250 mM imidazole). KSP-containing fractions were pooled, made 10% in sucrose, and stored at −80° C.
Microtubules are prepared from tubulin isolated from bovine brain. Purified tubulin (>97% MAP-free) at 1 mg/ml is polymerized at 37° C. in the presence of 10 μM paclitaxel, 1 mM DTT, 1 mM GTP in BRB80 buffer (80 mM K-PIPES, 1 mM EGTA, 1 mM MgCl2 at pH 6.8). The resulting microtubules are separated from non-polymerized tubulin by ultracentrifugation and removal of the supernatant. The pellet, containing the microtubules, is gently resuspended in 10 μM paclitaxel, 1 mM DTT, 50 μg/ml ampicillin, and 5 μg/ml chloramphenicol in BRB80.
The kinesin motor domain is incubated with microtubules, 1 mM ATP (1:1 MgCl2: Na-ATP), and compound at 23° C. in buffer containing 80 mM K-HEPES (pH 7.0), 1 mM EGTA, 1 mM DTT, 1 mM MgCl2, and 50 mM KCl. The reaction is terminated by a 2-10 fold dilution with a final buffer composition of 80 mM HEPES and 50 mM EDTA. Free phosphate from the ATP hydrolysis reaction is measured via a quinaldine red/ammonium molybdate assay by adding 150 μl of quench C buffer containing a 2:1 ratio of quench A:quench B. Quench A contains 0.1 mg/ml quinaldine red and 0.14% polyvinyl alcohol; quench B contains 12.3 mM ammonium molybdate tetrahydrate in 1.15 M sulfuric acid. The reaction is incubated for 10 minutes at 23° C., and the absorbance of the phosphomolybdate complex is measured at 540 nm.

SMILES | pIC50 | activity of resolved enantiomer (active / inactive) (assay not named) | relative inhibitory activity of the diastereomers (the cis diastereomer (eluted second) compared with the other, assay not named)
CC(=O)N1N=C2c3cc(F)ccc3OCC2C1(C)c1ccccc1 (mixture of isomers) [Compound 2-2, 2-acetyl-8-fluoro-3-methyl-3-phenyl-2,3,3a,4-tetrahydrochromeno[4,3-c]pyrazole] | ≥ 4.52 | – | –
CC(=O)N1CCN(CCC[C@@]2(c3ccccc3)[C@H]3COc4ccc(F)cc4C3=NN2C(C)=O)CC1 (relative stereo) [Compound 4-1, cis-2-acetyl-3-[3-(4-acetylpiperazin-1-yl)propyl]-8-fluoro-3-phenyl-2,3,3a,4-tetrahydrochromeno[4,3-c]pyrazole] | ≥ 4.52 | – | –
CC(=O)N1N=C2c3cc(F)ccc3OCC2C1c1ccccc1 (centres unmarked) [Compound 1-2, 2-acetyl-8-fluoro-3-phenyl-2,3,3a,4-tetrahydrochromeno[4,3-c]pyrazole] | ≥ 4.52 | – | higher inhibitory activity
CC(=O)N1N=C2c3cc(F)ccc3OC[C@H]2[C@H]1c1ccccc1 [Compound 1-3, (3S,3aS)-2-acetyl-8-fluoro-3-phenyl-2,3,3a,4-tetrahydrochromeno[4,3-c]pyrazole] | ≥ 4.52 | active | –
O=C(N1N=C2c3cc(F)ccc3OCC2C1(CCCO)c1ccccc1)C(F)(F)F (centres unmarked) [Compound 3-7, 3-[8-fluoro-3-phenyl-2-(trifluoroacetyl)-2,3,3a,4-tetrahydrochromeno[4,3-c]pyrazol-3-yl]propan-1-ol] | ≥ 4.52 | – | –
CC(=O)N1CCN(CCCC2(c3ccccc3)C3COc4ccc(F)cc4C3=NN2C(=O)C(F)(F)F)CC1 (centres unmarked) [Compound 3-8, 3-[3-(4-acetylpiperazin-1-yl)propyl]-8-fluoro-3-phenyl-2-(trifluoroacetyl)-2,3,3a,4-tetrahydrochromeno[4,3-c]pyrazole] | ≥ 4.52 | – | –
CC(=O)N1CCN(CCC[C@@]2(c3ccccc3)[C@@H]3COc4ccc(F)cc4C3=NN2C(=O)C(F)(F)F)CC1 [Compound 3-9, (3S,3aS)-3-[3-(4-acetylpiperazin-1-yl)propyl]-8-fluoro-3-phenyl-2-(trifluoroacetyl)-2,3,3a,4-tetrahydrochromeno[4,3-c]pyrazole] | ≥ 4.52 | active | –
CN(C)CCCC1(c2ccccc2)C2COc3ccc(F)cc3C2=NN1C(=O)C(F)(F)F (centres unmarked) [Compound 3-10, {3-[8-fluoro-3-phenyl-2-(trifluoroacetyl)-2,3,3a,4-tetrahydrochromeno[4,3-c]pyrazol-3-yl]propyl}dimethylamine] | ≥ 4.52 | – | –
O=C(N1N=C2c3cc(F)ccc3OCC2C1(CCCN1CCOCC1)c1ccccc1)C(F)(F)F (centres unmarked) [Compound 3-11, 8-fluoro-3-(3-morpholin-4-ylpropyl)-3-phenyl-2-(trifluoroacetyl)-2,3,3a,4-tetrahydrochromeno[4,3-c]pyrazole] | ≥ 4.52 | – | –

Second part, the molecule after the results:

pIC50 | activity of resolved enantiomer (active / inactive) (assay not named) | relative inhibitory activity of the diastereomers (the cis diastereomer (eluted second) compared with the other, assay not named) | SMILES
≥ 4.52 | – | – | CC(=O)N1N=C2c3cc(F)ccc3OCC2C1(CCC1OCCCO1)c1ccccc1 (mixture of isomers) [Compound 5-4, 2-acetyl-3-[2-(1,3-dioxan-2-yl)ethyl]-8-fluoro-3-phenyl-2,3,3a,4-tetrahydrochromeno[4,3-c]pyrazole]
≥ 4.52 | active | – | CC(=O)N1CCN(CCC[C@@]2(c3ccccc3)[C@@H]3COc4ccc(F)cc4C3=NN2C(C)=O)CC1 (single isomer, unassigned) [Compound 5-5]
≥ 4.52 | active | – | CC(=O)N1CCN(CCC[C@@]2(c3ccccc3)[C@H]3COc4ccc(F)cc4C3=NN2C(C)=O)CC1 (single isomer, unassigned) [Compound 5-6]
